Key:
[1] = molecular target: T1, Δ^5 -Lipoxygenase (Rattus norvegicus, UniProt P12527); experiment: Δ^5 -Lipoxygenase Inhibition; format: biochemical; details: RBL-1 cell supernatant; for inhibition at 10 µM: at 10^-5 M
T1 construct: using rat basophil leukemia cells (RBL-1 cells) as the enzyme source; endogenous in cells; host or cells: RBL-1 (rat basophil leukemia) cells, 49,300×g supernatant of homogenate
T1 sequence (P12527 1-673): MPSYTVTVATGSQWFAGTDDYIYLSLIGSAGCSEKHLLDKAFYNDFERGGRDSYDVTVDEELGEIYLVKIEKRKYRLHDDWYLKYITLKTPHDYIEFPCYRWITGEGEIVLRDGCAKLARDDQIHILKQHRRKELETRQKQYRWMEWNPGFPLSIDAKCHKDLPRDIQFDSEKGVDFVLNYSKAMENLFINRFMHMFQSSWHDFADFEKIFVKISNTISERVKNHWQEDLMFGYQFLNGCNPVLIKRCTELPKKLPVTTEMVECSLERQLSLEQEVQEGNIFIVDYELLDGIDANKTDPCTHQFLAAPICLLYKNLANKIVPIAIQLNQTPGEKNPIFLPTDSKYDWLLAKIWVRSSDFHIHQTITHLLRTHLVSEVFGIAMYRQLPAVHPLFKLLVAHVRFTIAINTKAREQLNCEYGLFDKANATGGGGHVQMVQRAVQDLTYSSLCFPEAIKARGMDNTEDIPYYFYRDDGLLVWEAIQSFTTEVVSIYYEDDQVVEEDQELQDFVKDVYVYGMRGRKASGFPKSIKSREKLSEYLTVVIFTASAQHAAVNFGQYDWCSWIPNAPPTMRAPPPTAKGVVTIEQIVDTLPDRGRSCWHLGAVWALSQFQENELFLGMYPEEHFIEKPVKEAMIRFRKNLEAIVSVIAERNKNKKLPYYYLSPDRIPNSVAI
Experimental: Δ^5 -Lipoxygenase inhibition was measured by following the conversion of ^14 C-arachidonic acid to ^14 C-5-HETE, using rat basophil leukemia cells (RBL-1 cells) as the enzyme source. These cells were maintained in stationary stock cultures and grown in spinner cultures prior to isolation by centrifugation at 4° C. at 1,500×g for 10 minutes. The cells were washed three times at 4° C. with 0.05M Tris HCl (ph 7.2) containing 1 mM EDTA, 14 μM indomethacin and 0.9% NaCl. They were then homogenized at 0°-4° C. using a glass/glass homogenizer in 0.05M Tris-HCl (pH 7.2) containing 1 mM EDTA and 14 μM indomethacin. The homogenate was then centrifuged at 49,300×g for 20 minutes (0°-4° C.) and the resulting supernatant frozen in small aliquots in a dry ice/acetone bath prior to storage at -80° C. Under these conditions, the enzyme was stable to freezing and thawing and to preincubation for 10 minutes at 30° C.
For enzyme assay, 100-200 μl of enzyme was incubated in the presence and absence of test compound (prepared in DMSO) for 10 minutes at 30° C. in 0.05M Tris-HCl buffer (pH 7.2) containing 1 mM glutathione, 2 mM CaCl2, 14 μM indomethacin and 0.25 and 0.5 mM EDTA (final volume 400 μl). The final DMSO concentration in these assays was 4%. The assay was initiated by the addition of 100 μl ^14 C-arachidonic acid (58 mCi/mmole) and incubations were carried out for 10 minutes at 37° C. in a shaking water bath. The reactions were stopped by the simultaneous addition of 4.0 ml of diethylether and 100 μl of 1.0 m citric acid, while the tubes were vigorously vortexed. The ^14 C-5-HETE generated by the enzyme was extracted into the acidified ether layer which was separated from the aqueous layer by freezing the assay tubes in a dry ice/acetone bath prior to decanting the liquid ether layer. The ether layer was evaporated to dryness under N2, the residue dissolved in 65 μl chloroform:methanol (2:1 v/v), prior to separating ^14 C-5-HETE from other ^14 C-labeled compounds on silica gel impregnated glass fiber TLC plates utilizing an elution solvent of isoctane:methylethylketone:acetic acid (100:9:1 v/v). ^14 C-5-HETE was identified by its co-chromatography with a chemically synthesized standard. The radioactive peaks of the chromatogram were cut out and the radioactivity was quantitated by liquid scintillation counting. The amount of 5-HETE obtained per sample was expressed as the percent of total and was calculated in the basis of: [formula] in order to evaluate the effect of the test compounds, the mean percent inhibition of ^14 C-5-HETE production was calculated. The IC50 for a drug was determined from a linear regression analysis of a plot of the mean percent inhibition vs drug concentration.

[2] = system: SRS-A-induced constriction of the guinea pig ileum; experiment: Guinea Pig Ileum, In Vitro (inhibition of SRS-A-induced constriction); format: cell-based; details: Cavia porcellus; SRS-A-induced constriction; in vitro; read-out: Guinea Pig Ileum, IC50
Experimental: The guinea pig ileum bioassay system has been described by Orange and Austen, Adv. Immunol. […] A 1.5 cm segment is removed from animals weighing 300-400 g. and suspended in an organ bath containing 10 ml. of Tyrodes solution with 10^-6 M atropine sulfate and 10^-6 M pyrilamine maleate. […] The SRS-A utilized in this screen is obtained by challenging chopped lung fragments from actively sensitized guinea pigs with egg albumin, in vitro. A dose-response curve to SRS-A challenge is established for the ileum. […] The drug concentration which inhibits, by 50%, the SRS-A-induced constriction of the guinea pig ileum is determined.

SMILES	inhibition at 10 µM [1] [%]	IC50 [2] [µM]	IC50 [1] [nM]	inhibition at 1 µM ([1]; at 10^-6 M) [%]
CC(C)c1ccc2ncn(/C=C/C(=O)NCCCCn3ccnc3)c(=O)c2c1 [drawing 15]	0	5	–	–
CC(C)c1ccc2ncn(/C=C/C(=O)NCCCCc3ccccn3)c(=O)c2c1 [drawing 17]	100	> 10	800	–
CC(C)c1ccc2ncn(/C=C/C(=O)NCCCCc3cccnc3)c(=O)c2c1 [drawing 12]	84	1	–	27
